In ChEMBL document CHEMBL5321248, “Syntheses and antitumor activities of neorautenol and shinpterocarpin analogs” (Bioorg Med Chem Lett, 2023):

Key:
NCI-H1299 = assay: Antitumor activity against human NCI-H1299 cells assessed as inhibition of cell growth by MTT assay; type: functional, cell-based
MDA-MB-231 = assay: Antitumor activity against human MDA-MB-231 cells assessed as inhibition of cell growth by MTT assay; type: functional, cell-based
NCI-H460 = assay: Antitumor activity against human NCI-H460 cells assessed as inhibition of cell growth by MTT assay; type: functional, cell-based
Hep 3B2 = assay: Antitumor activity against human Hep3B cells assessed as inhibition of cell growth by MTT assay; type: functional, cell-based
A549 = assay: Antitumor activity against human A549 cells assessed as inhibition of cell growth by MTT assay; type: functional, cell-based
HCT-116 = assay: Antitumor activity against human HCT-116 cells assessed as inhibition of cell growth by MTT assay; type: functional, cell-based
HT-22 [1] = assay: Cytotoxicity against mouse HT-22 cells assessed as reduction in cell viability at 10 uM relative to control; type: toxicity, cell-based; settings: ht-22, 10 µM
[2] = Cytotoxicity against human RPE cells assessed as reduction in cell viability at 10 uM relative to control; type: toxicity, cell-based
[3] = Cytotoxicity against human RPE cells assessed as reduction in cell viability at 50 uM relative to control; type: toxicity, cell-based
HT-22 [4] = assay: Cytotoxicity against mouse HT-22 cells assessed as reduction in cell viability at 50 uM relative to control; type: toxicity, cell-based; settings: ht-22, 50 µM

Compound	IC50 (NCI-H1299) [µM]	IC50 (MDA-MB-231) [µM]	IC50 (NCI-H460) [µM]	IC50 (Hep 3B2) [µM]	IC50 (A549) [µM]	IC50 (HCT-116) [µM]	Activity (HT-22 [1]) [%]	Activity [2] [%]	Activity [3]	Activity (HT-22 [4])
CC1(C)C=Cc2cc3c(cc2O1)OC[C@H]1c2ccc(OCCN4CCOCC4)cc2O[C@@H]31	> 10	> 10	> 10	> 10	> 10	> 10				
C#CC(C)(C)Oc1ccc2c(c1)OC[C@H]1c3ccc(O)cc3O[C@@H]21	> 10	> 10	> 10	> 10	> 10	> 10				
COc1ccc2c(c1)O[C@H]1c3cc4c(cc3OC[C@@H]21)OC(C)(C)C=C4	> 10	> 10	> 10	> 10	> 10	> 10				
CC(=O)Nc1ccc2c(c1)O[C@H]1c3cc4c(cc3OC[C@@H]21)OC(C)(C)C=C4	> 10	> 10	> 10	> 10	> 10	> 10				
COc1ccc2c(c1)OC[C@H]1c3ccc(O)cc3O[C@@H]21	> 10	> 10	> 10	> 10	> 10	> 10				
CC1(C)C=Cc2c(ccc3c2OC[C@H]2c4ccc(O)cc4O[C@@H]32)O1 [SHINPTEROCARPIN]	18.3	52.8	28	30.4	21.6	22.4				
CC1(C)C=Cc2cc3c(cc2O1)OC[C@H]1c2ccc(N)cc2O[C@@H]31	> 10	> 10	> 10	> 10	> 10	> 10				
CC1(C)C=Cc2cc3c(cc2O1)OC[C@H]1c2ccc(OCCN4CCNCC4)cc2O[C@@H]31	8.3	6.7	4.3	> 10	6.7	4.4	> 70	> 70	Non-Toxic	Toxic
CC1(C)C=Cc2cc3c(cc2O1)OC[C@H]1c2ccc(NS(C)(=O)=O)cc2O[C@@H]31	> 10	> 10	> 10	> 10	> 10	> 10				
CC1(C)C=Cc2c(ccc3c2OC[C@H]2c4ccc([N+](=O)[O-])cc4O[C@@H]32)O1	> 10	> 10	> 10	> 10	> 10	> 10				
COc1ccc2c(c1)O[C@H]1c3ccc4c(c3OC[C@@H]21)C=CC(C)(C)O4	> 10	> 10	> 10	> 10	> 10	> 10				
CC1(C)C=Cc2cc3c(cc2O1)OC[C@H]1c2ccc(O)cc2O[C@@H]31 [NEORAUTENOL]	15	53.1	24.2	28.5	24.6	17.4				
CC1(C)C=Cc2c(ccc3c2OC[C@H]2c4ccc(OCCN5CCOCC5)cc4O[C@@H]32)O1	> 10	> 10	> 10	> 10	> 10	> 10				
COCCOc1ccc2c(c1)O[C@H]1c3ccc4c(c3OC[C@@H]21)C=CC(C)(C)O4	> 10	> 10	> 10	> 10	> 10	> 10				
CC1(C)C=Cc2cc3c(cc2O1)OC[C@H]1c2ccccc2O[C@@H]31	> 10	> 10	> 10	> 10	> 10	> 10				
CC1(C)C=Cc2cc3c(cc2O1)OC[C@H]1c2ccc([N+](=O)[O-])cc2O[C@@H]31	> 10	> 10	> 10	> 10	> 10	> 10				
CC1(C)C=Cc2c(ccc3c2OC[C@H]2c4ccccc4O[C@@H]32)O1	> 10	> 10	> 10	> 10	> 10	> 10				
CC(=O)Nc1ccc2c(c1)O[C@H]1c3ccc4c(c3OC[C@@H]21)C=CC(C)(C)O4	> 10	> 10	> 10	> 10	> 10	> 10				
CN(C)CCOc1ccc2c(c1)O[C@H]1c3ccc4c(c3OC[C@@H]21)C=CC(C)(C)O4	9.6	> 10	5.7	> 10	8.1	7	> 70	> 70	Non-Toxic	Toxic
CC1(C)C=Cc2c(ccc3c2OC[C@H]2c4ccc(N)cc4O[C@@H]32)O1	> 10	> 10	> 10	> 10	> 10	> 10				
CN1CCN(CCOc2ccc3c(c2)O[C@H]2c4ccc5c(c4OC[C@@H]32)C=CC(C)(C)O5)CC1	6.6	> 10	4.2	> 10	6.5	5.2	> 70	> 70	Non-Toxic	Toxic
COCCOc1ccc2c(c1)O[C@H]1c3cc4c(cc3OC[C@@H]21)OC(C)(C)C=C4	> 10	> 10	> 10	> 10	> 10	> 10				
CC1(C)C=Cc2c(ccc3c2OC[C@H]2c4ccc(OCCN5CCNCC5)cc4O[C@@H]32)O1	> 10	> 10	> 10	> 10	> 10	> 10				
CC1(C)C=Cc2c(ccc3c2OC[C@H]2c4ccc(NS(C)(=O)=O)cc4O[C@@H]32)O1	> 10	> 10	> 10	> 10	> 10	> 10				
